In patent US20240247080A1, “GLP1/GIP/NPY2 RECEPTOR TRIPLE AGONISTS” (Boehringer Ingelheim International GmbH, priority 2022, published 2024) one finds EC50 data, which are given here for twelve substances.

Like-named read-outs stand apart in the source and are kept apart here. Starred links: 1 amine or outer side, 2 acyl side, 3 side chain; linkers in the order of their positions; H or OH if unused. Non-standard residues stand in square brackets, D forms with d. Groups on a side chain read outwards from the residue. *: point of attachment. C20 diacid = O=C(O)CCCCCCCCCCCCCCCCCCC(=O)*; C18 diacid = O=C(O)CCCCCCCCCCCCCCCCC(=O)*; γGlu = O=C(O)[C@H](CCC(=O)[*:2])N[*:1]; εLys = N[C@@H](CCCCN[*:1])C(=O)[*:2]; AEEA = NCCOCCOCC(=O)O; Aib = CC(C)(N)C(=O)O

Common to all, as to assay type: cell-based
Common to all, as to conditions: CreLuc reporter gene assay
Background: Reporter assays use an easily measured gene product as a stand-in for the process of interest.

One assay addresses T1, hGLP1R (Homo sapiens, UniProt P43220).
T1 construct: expressed in transfected cells; host or cells: HEK-293 cells carrying a CRE-luciferase reporter gene
Description: hGLP1R CreLuc reporter gene assay in 0.5% and 100% plasma. Summed up: (§1)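 Agonist EC50s came from 8-concentration curves over four decades, fitted by non-linear variable-slope regression of CRE-driven luciferase luminescence. Cells were exposed 4 h at 37 °C, in buffer with 0.5% human plasma or in 100% plasma; GIPR was expressed in CHO cells, GLP-1R and NPY2R in HEK cells.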

A further assay has as its target T2, hGIPR (Homo sapiens, UniProt P48546).
T2 construct: expressed in transfected cells; host or cells: CHO cells carrying a CRE-luciferase reporter gene
T2 sequence (P48546 22-466): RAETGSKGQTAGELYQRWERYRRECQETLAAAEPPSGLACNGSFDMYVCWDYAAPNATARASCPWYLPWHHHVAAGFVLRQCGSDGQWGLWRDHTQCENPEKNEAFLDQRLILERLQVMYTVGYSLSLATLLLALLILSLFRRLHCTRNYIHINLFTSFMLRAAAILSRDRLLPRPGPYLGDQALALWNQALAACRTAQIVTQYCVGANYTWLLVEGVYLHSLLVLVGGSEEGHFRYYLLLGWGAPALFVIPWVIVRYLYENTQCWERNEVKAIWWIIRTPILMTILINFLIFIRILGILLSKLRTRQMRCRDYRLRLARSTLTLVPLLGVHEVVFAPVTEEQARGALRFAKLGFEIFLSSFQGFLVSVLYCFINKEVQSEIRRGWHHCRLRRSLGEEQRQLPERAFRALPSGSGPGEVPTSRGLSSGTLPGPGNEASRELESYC
Description: hGIPR CreLuc reporter gene assay in 0.5% and 100% plasma. In outline:
as §1

In another assay the target is T3, hNPY2R (Homo sapiens, UniProt P49146).
T3 construct: expressed in transfected cells; host or cells: HEK-293 cells carrying a CRE-luciferase reporter gene
T3 sequence (P49146 1-381): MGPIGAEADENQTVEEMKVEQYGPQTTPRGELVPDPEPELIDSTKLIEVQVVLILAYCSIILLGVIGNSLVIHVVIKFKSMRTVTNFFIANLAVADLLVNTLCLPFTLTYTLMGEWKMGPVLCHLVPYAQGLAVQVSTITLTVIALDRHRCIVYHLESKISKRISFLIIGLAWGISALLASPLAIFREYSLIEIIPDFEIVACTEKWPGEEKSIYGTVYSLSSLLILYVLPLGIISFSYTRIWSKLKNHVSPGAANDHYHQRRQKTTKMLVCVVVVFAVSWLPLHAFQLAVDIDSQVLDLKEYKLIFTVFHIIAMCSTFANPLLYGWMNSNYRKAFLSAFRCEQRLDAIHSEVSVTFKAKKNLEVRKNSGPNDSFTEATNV
Description: hNPY2R CreLuc reporter gene assay in 0.5% and 100% plasma. In outline: as §1

Where [1] appears, read: 0.5% human plasma, read-out: hGLP1R 0.5% hP.
[2] abbreviates: 0.5% human plasma, read-out: hGIPR 0.5% hP.
Setting [3] is: 100% human plasma, read-out: hNPY2R 100% hP.
Setting [4] is: 0.5% human plasma, read-out: hNPY2R 0.5% hP.
The mark [5] stands for this setting: 100% human plasma, read-out: hGIPR 100% hP.
Where [6] appears, read: 100% human plasma, read-out: hGLP1R 100% hP.

T1 sequence (P43220 24-463): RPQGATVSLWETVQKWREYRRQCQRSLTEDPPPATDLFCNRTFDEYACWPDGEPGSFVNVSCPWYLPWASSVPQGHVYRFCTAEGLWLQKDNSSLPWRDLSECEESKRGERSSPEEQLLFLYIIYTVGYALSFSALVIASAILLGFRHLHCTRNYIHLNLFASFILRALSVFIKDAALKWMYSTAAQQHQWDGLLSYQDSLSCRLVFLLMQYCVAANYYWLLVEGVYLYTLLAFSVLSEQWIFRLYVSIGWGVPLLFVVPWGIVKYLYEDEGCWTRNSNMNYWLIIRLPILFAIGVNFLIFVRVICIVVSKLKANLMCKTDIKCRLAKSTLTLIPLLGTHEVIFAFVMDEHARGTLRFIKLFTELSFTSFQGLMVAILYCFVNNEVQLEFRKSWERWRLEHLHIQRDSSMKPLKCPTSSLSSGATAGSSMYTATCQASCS

As to “H-Y[Aib]EGTFTSDYSI[Aib]LEKQAQ[Aib]AFVQWLIK([εLys-γGlu-γGlu-γGlu-γGlu-γGlu-γGlu-C20 diacid])GGQRSYASLRHYYNWLTRQRY-NH2 [Compound 3, Y-Aib-E-G-T-F-T-S-D-Y-S-I-Aib-L-E-K-Q-A-Q-Aib-A-F-V-Q-W-L-I-K(1,3)-GGQRSYASLRHYYNWLTRQRY-NH2.C20DA-gGlu-gGlu-gGlu-gGlu-gGlu-gGlu-eLys(1,2)]”, the EC50 at hGLP1R (setting [1]) turned out to be 0.45 nM; on hGIPR (setting [2]), 0.53 nM; on hNPY2R (setting [3]), 23 nM.
With “H-Y[Aib]EGTFTSDYSI[Aib]LEKQAQ[Aib]AFVEWLIK([εLys-γGlu-γGlu-γGlu-γGlu-γGlu-γGlu-C20 diacid])GGPSSGASLRHYINWLTRQRY-NH2 [Compound 106, Y-Aib-E-G-T-F-T-S-D-Y-S-I-Aib-L-E-K-Q-A-Q-Aib-A-F-V-E-W-L-I-K(1,3)-GGPSSGASLRHYINWLTRQRY-NH2.C20DA-gGlu-gGlu-gGlu-gGlu-gGlu-gGlu-eLys(1,2)]”, the EC50 on hGLP1R (setting [1]) was 0.14 nM; at hGIPR (setting [2]), 0.26 nM; at hNPY2R (setting [4]), 20.5 nM.
The matching figures for “H-Y[Aib]EGTFTSDYSI[Aib]LEKQAE[Aib]AFVQWLIK([εLys-γGlu-γGlu-γGlu-γGlu-γGlu-C20 diacid])GGPSEGASLRHYYNWLTRQRY-NH2 [Compound 200, Y-Aib-E-G-T-F-T-S-D-Y-S-I-Aib-L-E-K-Q-A-E-Aib-A-F-V-Q-W-L-I-K(1,3)-GGPSEGASLRHYYNWLTRQRY-NH2.C20DA-gGlu-gGlu-gGlu-gGlu-gGlu-eLys(1,2)]”: 0.48 nM, 0.37 nM and 12.1 nM.
Take “H-Y[Aib]EGTFTSDYSI[Aib]LEKQAQ[Aib]AFVEWLIK([γGlu-γGlu-γGlu-γGlu-C18 diacid])GGPEEGASLRHYYNWLTRQRY-NH2 [Compound 272, Y-Aib-E-G-T-F-T-S-D-Y-S-I-Aib-L-E-K-Q-A-Q-Aib-A-F-V-E-W-L-I-K(1,3)-GGPEEGASLRHYYNWLTRQRY-NH2.C18DA-gGlu-gGlu-gGlu-gGlu(1,2)]”: the EC50 on hGLP1R (setting [1]) was found to be 0.31 nM; at hGIPR (setting [2]), 0.24 nM; at hGIPR (setting [5]), 3.01 nM; at hNPY2R (setting [4]), 23.8 nM.
Regarding “H-Y[Aib]EGTFTSDYSI[Aib]LEKQAQ[Aib]AFVEWLIK([γGlu-γGlu-γGlu-γGlu-γGlu-C18 diacid])GGPSSGASLRHYYNWLTRQRY-NH2 [Compound 253, Y-Aib-E-G-T-F-T-S-D-Y-S-I-Aib-L-E-K-Q-A-Q-Aib-A-F-V-E-W-L-I-K(1,3)-GGPSSGASLRHYYNWLTRQRY-NH2.C18DA-gGlu-gGlu-gGlu-gGlu-gGlu(1,2)]”, the EC50 worked out at 0.08 nM at hGLP1R (setting [1]); 0.74 nM on hGLP1R (setting [6]); 0.24 nM on hGIPR (setting [2]); 0.64 nM at hGIPR (setting [5]); 13.4 nM on hNPY2R (setting [4]).
Turning to “H-Y[Aib]EGTFTSDYSI[Aib]LEKQAQ[Aib]AFVEWLIK([AEEA-AEEA-γGlu-γGlu-γGlu-γGlu-C18 diacid])GGPEEPASLRHYYNWLTRQRY-NH2 [Compound 161, Y-Aib-E-G-T-F-T-S-D-Y-S-I-Aib-L-E-K-Q-A-Q-Aib-A-F-V-E-W-L-I-K(1,3)-GGPEEPASLRHYYNWLTRQRY-NH2.C18DA-gGlu-gGlu-gGlu-gGlu-OEG-OEG(1,2)]”, the EC50 on hGLP1R (setting [1]) stood at 0.21 nM; on hGIPR (setting [2]), 0.14 nM; on hGIPR (setting [5]), 1.23 nM; at hNPY2R (setting [4]), 11.5 nM; on hNPY2R (setting [3]) it was 41.7 nM.
For “H-Y[Aib]EGTFTSDYSI[Aib]LEKQAQ[Aib]AFVEWLIK([εLys-γGlu-γGlu-γGlu-γGlu-γGlu-γGlu-C20 diacid])GGPSSGASVRHYYNWLTRQRY-NH2 [Compound 117, Y-Aib-E-G-T-F-T-S-D-Y-S-I-Aib-L-E-K-Q-A-Q-Aib-A-F-V-E-W-L-I-K(1,3)-GGPSSGASVRHYYNWLTRQRY-NH2.C20DA-gGlu-gGlu-gGlu-gGlu-gGlu-gGlu-eLys(1,2)]”, the EC50 at hGLP1R (setting [1]) was 0.13 nM; on hGIPR (setting [2]), 0.14 nM; at hGIPR (setting [5]), 1.18 nM; at hNPY2R (setting [3]), 24.6 nM.
“H-Y[Aib]EGTFTSDYSI[Aib]LEKQAQ[Aib]AFVEWLIK([εLys-γGlu-γGlu-γGlu-γGlu-γGlu-γGlu-C20 diacid])GGPSSPESLRHYYNWLTRQRY-NH2 [Compound 73, Y-Aib-E-G-T-F-T-S-D-Y-S-I-Aib-L-E-K-Q-A-Q-Aib-A-F-V-E-W-L-I-K(1,3)-GGPSSPESLRHYYNWLTRQRY-NH2.C20DA-gGlu-gGlu-gGlu-gGlu-gGlu-gGlu-eLys(1,2)]”: the EC50 was 0.19 nM on hGLP1R (setting [1]); 4.76 nM at hGLP1R (setting [6]); 0.11 nM at hGIPR (setting [2]); 1.61 nM on hGIPR (setting [5]); 107 nM at hNPY2R (setting [3]).
For the substance “H-Y[Aib]EGTFTSDYSI[Aib]LEKQAQ[Aib]AFVQWLIK([AEEA-AEEA-γGlu-γGlu-γGlu-γGlu-C18 diacid])GGPEEGASLRHYYNWLTRQRY-NH2 [Compound 146, Y-Aib-E-G-T-F-T-S-D-Y-S-I-Aib-L-E-K-Q-A-Q-Aib-A-F-V-Q-W-L-I-K(1,3)-GGPEEGASLRHYYNWLTRQRY-NH2.C18DA-gGlu-gGlu-gGlu-gGlu-OEG-OEG(1,2)]”, the EC50 at hGLP1R (setting [1]) was 0.14 nM; at hGIPR (setting [2]), 0.77 nM; on hGIPR (setting [5]), 0.73 nM; at hNPY2R (setting [4]), 14 nM.
On to “H-Y[Aib]EGTFTSDYSI[Aib]LEKQAQ[Aib]EFVQWLIK([γGlu-γGlu-γGlu-γGlu-γGlu-C18 diacid])GGPSEGASLRHYYNWLTRQRY-NH2 [Compound 141, Y-Aib-E-G-T-F-T-S-D-Y-S-I-Aib-L-E-K-Q-A-Q-Aib-E-F-V-Q-W-L-I-K(1,3)-GGPSEGASLRHYYNWLTRQRY-NH2.C18DA-gGlu-gGlu-gGlu-gGlu-gGlu(1,2)]”, for which the EC50 was 0.25 nM at hGLP1R (setting [1]), 0.4 nM on hGIPR (setting [2]), 11.8 nM at hNPY2R (setting [4]) and 35.3 nM at hNPY2R (setting [3]).
Take “H-Y[Aib]EGTFTSDYSI[Aib]LEAAKQ[Aib]AFVEWLIK([εLys-γGlu-γGlu-γGlu-γGlu-γGlu-γGlu-C20 diacid])GGPSSGASLRHYYNWLTRQRY-NH2 [Compound 25, Y-Aib-E-G-T-F-T-S-D-Y-S-I-Aib-L-E-A-A-K-Q-Aib-A-F-V-E-W-L-I-K(1,3)-GGPSSGASLRHYYNWLTRQRY-NH2.C20DA-gGlu-gGlu-gGlu-gGlu-gGlu-gGlu-eLys(1,2)]”: the EC50 came out at 14.2 nM at hGLP1R (setting [6]), 0.98 nM on hGIPR (setting [2]) and 13 nM at hNPY2R (setting [4]).
Consider “H-Y[Aib]EGTFTSDYSI[Aib]LEEEAQ[Aib]AFVQWLIK([εLys-εLys-γGlu-γGlu-γGlu-γGlu-γGlu-C20 diacid])GGPSSGASLRHYYNWLTRQRY-NH2 [Compound 7, Y-Aib-E-G-T-F-T-S-D-Y-S-I-Aib-L-E-E-E-A-Q-Aib-A-F-V-Q-W-L-I-K(1,3)-GGPSSGASLRHYYNWLTRQRY-NH2.C20DA-gGlu-gGlu-gGlu-gGlu-gGlu-eLys-eLys(1,2)]”, for which the EC50 was 0.13 nM at hGLP1R (setting [1]), 0.23 nM at hGIPR (setting [2]), 0.63 nM on hGIPR (setting [5]) and 16.9 nM at hNPY2R (setting [4]).
